The text below walks through data of patent US8071780B2, “2-Hydroxymethyl-3,4,5-trihydroxy-1-benzilpiperidine derivatives as inhibitors of glucosylceramide” (Actelion Pharmaceuticals Ltd., priority 2003, dated 2011).

Experiment [1] deals with T1, non-lysosomal-β-glucocerebrosidase (Homo sapiens, UniProt Q9HCG7).
T1 construct: whole cell extracts of MCF7 (a human breast carcinoma cell line) was used as the source of the enzyme; endogenous in cells; host or cells: MCF7 whole cell extract
T1 sequence (Q9HCG7 1-927): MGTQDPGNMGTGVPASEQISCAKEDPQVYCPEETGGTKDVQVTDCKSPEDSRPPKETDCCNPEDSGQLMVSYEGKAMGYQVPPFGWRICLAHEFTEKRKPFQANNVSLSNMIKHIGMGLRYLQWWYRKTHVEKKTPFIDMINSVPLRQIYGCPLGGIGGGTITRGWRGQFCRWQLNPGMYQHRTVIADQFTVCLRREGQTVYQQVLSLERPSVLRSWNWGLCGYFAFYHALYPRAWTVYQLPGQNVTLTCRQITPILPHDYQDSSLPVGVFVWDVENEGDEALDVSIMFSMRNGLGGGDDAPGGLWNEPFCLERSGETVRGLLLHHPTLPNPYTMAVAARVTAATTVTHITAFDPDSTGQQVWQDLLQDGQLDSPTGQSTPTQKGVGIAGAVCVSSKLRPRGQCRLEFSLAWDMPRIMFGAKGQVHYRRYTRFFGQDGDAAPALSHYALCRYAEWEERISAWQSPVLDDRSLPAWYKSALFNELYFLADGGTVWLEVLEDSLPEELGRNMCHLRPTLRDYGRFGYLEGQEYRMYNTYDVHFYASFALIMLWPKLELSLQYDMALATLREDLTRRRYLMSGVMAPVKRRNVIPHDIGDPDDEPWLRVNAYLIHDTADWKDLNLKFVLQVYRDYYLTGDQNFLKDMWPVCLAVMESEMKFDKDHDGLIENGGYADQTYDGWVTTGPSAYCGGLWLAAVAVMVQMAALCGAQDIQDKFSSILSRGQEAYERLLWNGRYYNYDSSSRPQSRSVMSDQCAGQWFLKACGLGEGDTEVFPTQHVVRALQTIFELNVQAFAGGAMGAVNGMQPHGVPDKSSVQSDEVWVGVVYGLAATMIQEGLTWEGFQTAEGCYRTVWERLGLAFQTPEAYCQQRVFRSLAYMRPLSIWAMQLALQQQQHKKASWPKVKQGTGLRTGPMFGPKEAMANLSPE
Kind of experiment: Inhibition of non-lysosomal-β-glucocerebrosidase. Type of experiment: biochemical. The settings on record: whole cell extracts of MCF7 as enzyme source; 5 mM 4-MU β-glucoside; pH 5.8. The method, then:
Inhibition of non-lysosomal-β-glucocerebrosidase
The assay for inhibition of non-lysosomal-β-glucocerebrosidase was essentially carried out as described in Overkleeft, H. S. et al., J. Biol. Chem. (1998) 273, 26522-26527 with the following differences: whole cell extracts of MCF7 (a human breast carcinoma cell line) was used as the source of the enzyme instead of splenic membrane suspensions; 5 mM instead of 3 mM, 4-MU β-glucoside was used as substrate and 0.2M citrate/phosphate (pH 5.8) was used instead of McIlvaine buffer.

The target of experiment [2] is T2, human recombinant GCS expressed in insect cells (Homo sapiens, UniProt Q16739).
T2 construct: made in house; host or cells: insect cells
T2 sequence (Q16739 1-394): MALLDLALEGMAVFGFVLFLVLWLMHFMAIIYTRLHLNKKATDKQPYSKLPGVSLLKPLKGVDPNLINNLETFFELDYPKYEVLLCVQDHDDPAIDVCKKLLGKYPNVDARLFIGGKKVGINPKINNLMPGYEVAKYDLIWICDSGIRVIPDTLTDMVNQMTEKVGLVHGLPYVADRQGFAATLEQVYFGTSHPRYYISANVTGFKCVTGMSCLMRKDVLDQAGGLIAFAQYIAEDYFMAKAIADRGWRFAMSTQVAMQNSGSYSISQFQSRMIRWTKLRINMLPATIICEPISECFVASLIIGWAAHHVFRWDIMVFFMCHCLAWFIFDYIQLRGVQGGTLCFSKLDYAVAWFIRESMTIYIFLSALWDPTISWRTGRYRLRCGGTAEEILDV
As to the kind of experiment: Inhibition of GCS (glucosylceramide synthase). Type of experiment: biochemical. The method, then:
The assay for inhibition of GCS was performed essentially as described in Platt et al., J. Biol. Chem., (1994), 269, 27108, the enzyme source being human recombinant GCS expressed in insect cells.

In the next experiment the target is T3, human GCS (Homo sapiens, UniProt Q16739).
T3 construct: endogenous in cells; host or cells: MCF-7
T3 sequence (Q16739 1-394): T2 sequence (Q16739 1-394)
Kind of experiment: Cell-based IC50 for GCS inhibition by measuring glucosylceramide (GlcCer) depletion. The conditions noted are these: MCF-7 cells cultured 5-7 days with compound; GlcCer depletion by HPTLC; read-out: Inhibition of GCS Cellular-based (IC50 μM). On the procedure: Estimating the Cell-Based IC50 for GCS Inhibition by Measuring Glucosylceramide (GlcCer) Depletion
Human mammary epithelial cells (MCF-7) were cultured for 5-7 days, with varying concentrations of a compound of the invention to be tested (0; 0.01; 0.05; 0.25; 1.25 and 6.25 μM). The cells were harvested and the total cellular lipids extracted. Neutral glycolipids were separated by partitioning in a DIPE/1-butanol/saline suspension, according to methods well known to those skilled in the art. The neutral glycolipid extracts were then separated by High-Performance Thin Layer Chromatography (HPTLC), using non-polar TLC conditions (chloroform:methanol: 0.2% CaCl2; 65:35:8), according to methods well known to those skilled in the art. GlcCer bands were visualized and the TLC plates were scanned immediately. Scion Image software was then used to quantify GlcCer in the samples relative to a GlcCer standard. This enabled a cell-based IC50 to be calculated for compounds of the invention for GCS inhibition.

Each structure is given as a SMILES string.

On to `CCCCOc1ccc(CN2C[C@H](O)[C@@H](O)[C@H](O)[C@@H]2CO)cc1` [Example 2, 3,4,5-Piperidinetriol, 1-[(4-butoxyphenyl)methyl]-2-(hydroxymethyl)-, (2S,3R,4R,5S)], for which the IC50 is 0.004 µM in experiment [1] and 0.42 µM in experiment [2].
`CCCCCOc1ccc(CN2C[C@H](O)[C@@H](O)[C@H](O)[C@@H]2CO)cc1` [Example 1, 3,4,5-Piperidinetriol, 2-(hydroxymethyl)-1-[(4-pentyloxyphenyl)methyl]-, (2S,3R,4R,5S)]: the IC50 in experiment [1] was 0.001 µM; at human GCS it was approximately 0.015 µM; in experiment [2] it was 0.15 µM.

For orientation: IC50 means the midpoint of a concentration-inhibition curve.
